Three compounds from paper PMC10824666 (Nature Cancer, 2023) can be followed below.

Holding throughout (experiment): biochemical
Common to all, as to parameters: Eurofins DiscoverX kinase panel, competitive binding assay at 1 uM, percent of DMSO control
Details in all cases: competitive binding, percent of DMSO control

For one experiment, the target named is T1, PLK4 (Homo sapiens, UniProt O00444).
T1 sequence (O00444 1-970): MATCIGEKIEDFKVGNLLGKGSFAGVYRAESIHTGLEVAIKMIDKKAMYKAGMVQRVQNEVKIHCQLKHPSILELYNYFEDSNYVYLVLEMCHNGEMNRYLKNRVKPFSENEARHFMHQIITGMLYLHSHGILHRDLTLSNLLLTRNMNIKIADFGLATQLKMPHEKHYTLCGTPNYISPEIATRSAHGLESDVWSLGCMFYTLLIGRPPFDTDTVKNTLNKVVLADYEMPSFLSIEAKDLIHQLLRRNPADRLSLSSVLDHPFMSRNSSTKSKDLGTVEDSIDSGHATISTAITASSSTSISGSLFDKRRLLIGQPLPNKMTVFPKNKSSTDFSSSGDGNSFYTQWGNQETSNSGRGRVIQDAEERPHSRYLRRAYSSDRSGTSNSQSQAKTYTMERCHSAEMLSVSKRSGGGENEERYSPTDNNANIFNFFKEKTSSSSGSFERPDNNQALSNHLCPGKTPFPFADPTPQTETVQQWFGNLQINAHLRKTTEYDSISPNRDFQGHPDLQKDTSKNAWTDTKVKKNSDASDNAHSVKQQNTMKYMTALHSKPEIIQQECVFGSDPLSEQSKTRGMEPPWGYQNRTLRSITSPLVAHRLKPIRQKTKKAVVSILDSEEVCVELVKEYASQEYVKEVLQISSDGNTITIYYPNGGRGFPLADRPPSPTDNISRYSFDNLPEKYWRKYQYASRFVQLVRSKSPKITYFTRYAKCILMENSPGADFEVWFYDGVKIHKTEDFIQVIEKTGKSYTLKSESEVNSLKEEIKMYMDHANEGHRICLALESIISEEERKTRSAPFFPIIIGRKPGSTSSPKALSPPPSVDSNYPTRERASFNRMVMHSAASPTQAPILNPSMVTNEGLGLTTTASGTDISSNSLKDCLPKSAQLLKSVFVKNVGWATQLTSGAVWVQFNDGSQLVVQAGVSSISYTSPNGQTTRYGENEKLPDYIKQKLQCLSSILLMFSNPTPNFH
A digest of the protocol:
(§1)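 Single-point profiling at 1 µM compound in a competition-binding format against 96 kinases, read out as POC relative to control; n = 1.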

The target in the next experiment is HIPK1 (Homo sapiens, UniProt Q86Z02). The method in brief: as §1
HIPK1, sequence (Q86Z02 whole entry): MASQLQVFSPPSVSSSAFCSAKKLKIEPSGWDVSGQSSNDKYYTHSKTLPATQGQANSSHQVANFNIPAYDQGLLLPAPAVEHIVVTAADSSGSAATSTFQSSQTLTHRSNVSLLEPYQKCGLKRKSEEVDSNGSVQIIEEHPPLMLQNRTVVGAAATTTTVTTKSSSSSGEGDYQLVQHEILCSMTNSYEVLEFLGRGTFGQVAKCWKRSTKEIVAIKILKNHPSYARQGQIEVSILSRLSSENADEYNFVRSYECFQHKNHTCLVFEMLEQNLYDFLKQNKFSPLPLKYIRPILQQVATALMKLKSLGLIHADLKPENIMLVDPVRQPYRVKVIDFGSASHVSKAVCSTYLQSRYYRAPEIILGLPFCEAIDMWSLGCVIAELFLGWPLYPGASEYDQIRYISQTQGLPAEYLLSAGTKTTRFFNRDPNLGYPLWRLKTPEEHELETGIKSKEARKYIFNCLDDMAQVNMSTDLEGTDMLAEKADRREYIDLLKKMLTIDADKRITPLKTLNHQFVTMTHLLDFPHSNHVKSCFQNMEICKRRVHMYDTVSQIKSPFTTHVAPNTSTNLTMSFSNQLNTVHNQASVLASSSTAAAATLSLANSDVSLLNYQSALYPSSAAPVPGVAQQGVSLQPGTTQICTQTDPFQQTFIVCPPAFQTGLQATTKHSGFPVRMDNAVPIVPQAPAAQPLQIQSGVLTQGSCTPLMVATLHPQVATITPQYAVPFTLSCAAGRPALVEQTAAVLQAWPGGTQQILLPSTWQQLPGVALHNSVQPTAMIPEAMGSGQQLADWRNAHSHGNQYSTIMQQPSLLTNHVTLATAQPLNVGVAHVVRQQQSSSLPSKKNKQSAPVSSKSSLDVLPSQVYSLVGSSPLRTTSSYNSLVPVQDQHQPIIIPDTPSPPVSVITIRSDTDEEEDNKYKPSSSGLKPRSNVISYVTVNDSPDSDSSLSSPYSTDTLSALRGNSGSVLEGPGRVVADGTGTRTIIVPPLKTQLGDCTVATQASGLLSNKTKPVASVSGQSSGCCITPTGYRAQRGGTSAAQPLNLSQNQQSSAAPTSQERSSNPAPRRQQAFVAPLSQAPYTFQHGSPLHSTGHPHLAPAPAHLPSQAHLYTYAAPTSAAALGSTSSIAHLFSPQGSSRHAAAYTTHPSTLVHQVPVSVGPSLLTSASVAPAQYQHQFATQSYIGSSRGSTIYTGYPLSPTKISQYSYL
The target in the next experiment is T2, MSK1 (Homo sapiens, UniProt O75582).
T2 construct: gene RPS6KA5
T2 sequence (O75582 whole entry): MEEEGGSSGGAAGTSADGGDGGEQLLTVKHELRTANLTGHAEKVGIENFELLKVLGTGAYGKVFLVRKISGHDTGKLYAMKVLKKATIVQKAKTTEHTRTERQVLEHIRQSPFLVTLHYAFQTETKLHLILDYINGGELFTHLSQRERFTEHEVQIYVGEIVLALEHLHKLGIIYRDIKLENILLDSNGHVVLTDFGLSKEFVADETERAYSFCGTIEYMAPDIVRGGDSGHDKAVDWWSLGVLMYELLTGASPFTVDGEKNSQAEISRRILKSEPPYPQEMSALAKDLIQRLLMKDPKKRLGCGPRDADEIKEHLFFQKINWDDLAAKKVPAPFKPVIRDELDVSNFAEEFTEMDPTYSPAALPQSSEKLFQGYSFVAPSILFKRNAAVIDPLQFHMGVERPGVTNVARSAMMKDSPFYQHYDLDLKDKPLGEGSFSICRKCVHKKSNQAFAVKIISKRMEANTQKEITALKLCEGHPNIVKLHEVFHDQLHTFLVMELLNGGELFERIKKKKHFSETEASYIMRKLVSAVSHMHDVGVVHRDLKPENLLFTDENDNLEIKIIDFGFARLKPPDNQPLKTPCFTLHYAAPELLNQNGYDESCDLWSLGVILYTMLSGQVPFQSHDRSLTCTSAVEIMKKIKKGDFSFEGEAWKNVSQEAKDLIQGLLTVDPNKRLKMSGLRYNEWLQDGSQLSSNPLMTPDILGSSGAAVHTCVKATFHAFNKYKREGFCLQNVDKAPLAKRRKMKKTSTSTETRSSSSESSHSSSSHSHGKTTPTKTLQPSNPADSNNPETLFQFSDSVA
A digest of the protocol:
as §1

The next experiment concerns the target OXSR1 (Homo sapiens, UniProt O95747). The method in brief: as §1
The target in another experiment is LIMK1 (Homo sapiens, UniProt P53667). The method in brief: as §1
LIMK1, sequence (P53667 whole entry): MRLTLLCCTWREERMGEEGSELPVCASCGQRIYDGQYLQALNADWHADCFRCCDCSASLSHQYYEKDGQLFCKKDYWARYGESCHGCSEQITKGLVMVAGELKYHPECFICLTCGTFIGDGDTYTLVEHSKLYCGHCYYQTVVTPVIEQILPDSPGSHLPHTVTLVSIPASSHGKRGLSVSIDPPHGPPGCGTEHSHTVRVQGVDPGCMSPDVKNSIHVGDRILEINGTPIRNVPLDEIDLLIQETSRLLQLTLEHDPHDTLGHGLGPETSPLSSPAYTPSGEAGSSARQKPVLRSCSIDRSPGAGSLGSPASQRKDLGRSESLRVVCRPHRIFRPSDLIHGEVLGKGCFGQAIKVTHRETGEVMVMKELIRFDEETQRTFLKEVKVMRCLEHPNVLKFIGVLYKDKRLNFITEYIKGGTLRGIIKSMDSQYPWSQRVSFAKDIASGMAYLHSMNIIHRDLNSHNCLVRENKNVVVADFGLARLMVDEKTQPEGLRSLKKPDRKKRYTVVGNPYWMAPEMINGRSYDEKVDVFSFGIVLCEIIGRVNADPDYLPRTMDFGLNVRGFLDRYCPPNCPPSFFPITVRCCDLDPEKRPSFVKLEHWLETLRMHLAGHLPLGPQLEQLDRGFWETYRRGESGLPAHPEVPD
Another experiment has as its target T3, PAK 2 (Homo sapiens, UniProt Q13177).
T3 construct: gene PAK2
The method in brief:
as §1

In a further experiment the target is SRC (Homo sapiens, UniProt P12931). A digest of the protocol:
as §1

The mark [1] stands for this setting: read-out: Kinome Profiling performed by Eurofins DiscoverX / AM-0277, 1.0 µM / POC.
[2] abbreviates: read-out: Kinome Profiling performed by Eurofins DiscoverX / AM-1882, 1.0 µM / POC.
[3] abbreviates: read-out: Kinome Profiling performed by Eurofins DiscoverX / AM-5308, 1.0 µM / POC.

Each structure is given as a SMILES string. Like-named read-outs stand apart in the source and are kept apart here.

OXSR1, sequence (O95747 whole entry): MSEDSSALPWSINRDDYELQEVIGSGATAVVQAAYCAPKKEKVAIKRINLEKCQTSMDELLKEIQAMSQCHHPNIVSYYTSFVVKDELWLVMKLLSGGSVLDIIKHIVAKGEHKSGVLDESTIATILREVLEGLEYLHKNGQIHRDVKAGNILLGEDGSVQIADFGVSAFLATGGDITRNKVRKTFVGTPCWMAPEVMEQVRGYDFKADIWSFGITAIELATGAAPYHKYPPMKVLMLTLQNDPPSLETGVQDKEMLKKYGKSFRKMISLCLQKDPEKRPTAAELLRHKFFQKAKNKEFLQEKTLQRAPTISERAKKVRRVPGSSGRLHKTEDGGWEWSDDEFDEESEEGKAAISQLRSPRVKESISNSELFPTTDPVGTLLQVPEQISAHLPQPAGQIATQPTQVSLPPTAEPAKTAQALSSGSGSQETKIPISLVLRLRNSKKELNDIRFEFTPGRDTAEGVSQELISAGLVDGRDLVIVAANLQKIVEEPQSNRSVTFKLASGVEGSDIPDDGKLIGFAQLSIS
SRC, sequence (P12931 whole entry): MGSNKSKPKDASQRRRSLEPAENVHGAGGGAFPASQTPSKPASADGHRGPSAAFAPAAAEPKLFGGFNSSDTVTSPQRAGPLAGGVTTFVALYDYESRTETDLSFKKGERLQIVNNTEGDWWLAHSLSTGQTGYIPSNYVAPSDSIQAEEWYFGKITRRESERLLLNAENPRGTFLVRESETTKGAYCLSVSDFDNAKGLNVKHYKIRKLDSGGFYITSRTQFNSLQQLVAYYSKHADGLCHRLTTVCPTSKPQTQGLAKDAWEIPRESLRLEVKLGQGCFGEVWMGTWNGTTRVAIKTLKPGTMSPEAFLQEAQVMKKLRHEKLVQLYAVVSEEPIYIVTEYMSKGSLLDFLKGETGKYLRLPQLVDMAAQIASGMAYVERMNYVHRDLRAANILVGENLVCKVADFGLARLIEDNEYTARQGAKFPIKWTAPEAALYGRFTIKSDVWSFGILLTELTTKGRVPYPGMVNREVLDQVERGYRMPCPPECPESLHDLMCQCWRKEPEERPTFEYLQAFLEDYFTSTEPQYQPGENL
T3 sequence (Q13177 whole entry): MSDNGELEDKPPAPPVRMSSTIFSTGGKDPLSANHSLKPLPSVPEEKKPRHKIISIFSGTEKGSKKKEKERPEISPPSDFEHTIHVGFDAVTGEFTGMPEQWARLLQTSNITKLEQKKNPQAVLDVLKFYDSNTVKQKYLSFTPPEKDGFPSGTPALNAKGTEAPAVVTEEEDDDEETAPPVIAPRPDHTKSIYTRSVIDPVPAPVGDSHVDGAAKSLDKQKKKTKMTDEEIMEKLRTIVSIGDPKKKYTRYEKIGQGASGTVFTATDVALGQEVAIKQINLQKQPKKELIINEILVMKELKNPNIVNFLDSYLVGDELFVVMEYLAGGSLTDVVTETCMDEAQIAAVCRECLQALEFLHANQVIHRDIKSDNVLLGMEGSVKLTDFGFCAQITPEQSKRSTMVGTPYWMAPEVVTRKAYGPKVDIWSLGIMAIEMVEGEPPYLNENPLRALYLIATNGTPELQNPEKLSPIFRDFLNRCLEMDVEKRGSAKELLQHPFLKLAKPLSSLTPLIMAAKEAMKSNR

As to `CC(C)(CO)Nc1ccc(C(=O)Nc2cccc(S(=O)(=O)C3CCCC3)c2)c(N2CCC3(CC2)CC3)n1` [AM-0277], the remaining activity at 1 µM on PLK4 (setting [1]) is 100%; at HIPK1 (setting [1]), 61%; on MSK1 (setting [1]), 94%; at OXSR1 (setting [1]) it was 100%; at LIMK1 (setting [1]), 95%; on PAK 2 (setting [1]), 100%. Besides, the remaining activity at 1 µM at SRC (setting [1]) is 89%.

In the case of `CC(C)(C)NS(=O)(=O)c1cccc(NC(=O)c2ccc(S(=O)(=O)NC(C)(C)C)cc2N2CCC3(CC2)CC3)c1` [AM-1882], the remaining activity at 1 µM at PLK4 (setting [2]) was 93.5%; at HIPK1 (setting [2]) it was 73%; on MSK1 (setting [2]), 100%; at OXSR1 (setting [2]), 92.5%; on LIMK1 (setting [2]) it was 87%; at PAK 2 (setting [2]), 100%. For the same compound, at SRC (setting [2]), the remaining activity at 1 µM worked out at 98%.

In the case of `C[C@@H]1CN(c2cccc(NC(=O)c3ccc(NS(=O)(=O)CCO)cc3N3CCC4(CC3)CC4)n2)CCO1` [AM-5308], the remaining activity at 1 µM on PLK4 (setting [3]) was 87.5%; on HIPK1 (setting [3]) it was 100%; on MSK1 (setting [3]), 91.5%; at OXSR1 (setting [3]), 82.5%; on LIMK1 (setting [3]), 92.5%; at PAK 2 (setting [3]) it was 66.5%. Also, on SRC (setting [3]), the remaining activity at 1 µM worked out at 96.5%.
